Test results published in patent US20250320213A1, “Nitrogen-Containing Heterocyclic Compounds” (Pfizer Inc., priority 2024, published 2025).
Where two headings read alike, the source gives them in different places.

Tests used:
STAT6 = target: T1, STAT6 (Homo sapiens, UniProt P42226); test: STAT6 Reporter Luciferase Assay (IL-13 stimulated HaCaT keratinocyte NanoLuc reporter cells); format: cell-based; conditions: read-out: Reporter EC50
T1 construct: stably transfected HaCaT keratinocyte cell line, which expresses NanoLuc luciferase reporter gene under the transcriptional control of the STAT6 responsive promoter; endogenous in cells; host or cells: HaCaT keratinocyte reporter cell line (stably transfected with a NanoLuc reporter)
T1 sequence (P42226 1-847): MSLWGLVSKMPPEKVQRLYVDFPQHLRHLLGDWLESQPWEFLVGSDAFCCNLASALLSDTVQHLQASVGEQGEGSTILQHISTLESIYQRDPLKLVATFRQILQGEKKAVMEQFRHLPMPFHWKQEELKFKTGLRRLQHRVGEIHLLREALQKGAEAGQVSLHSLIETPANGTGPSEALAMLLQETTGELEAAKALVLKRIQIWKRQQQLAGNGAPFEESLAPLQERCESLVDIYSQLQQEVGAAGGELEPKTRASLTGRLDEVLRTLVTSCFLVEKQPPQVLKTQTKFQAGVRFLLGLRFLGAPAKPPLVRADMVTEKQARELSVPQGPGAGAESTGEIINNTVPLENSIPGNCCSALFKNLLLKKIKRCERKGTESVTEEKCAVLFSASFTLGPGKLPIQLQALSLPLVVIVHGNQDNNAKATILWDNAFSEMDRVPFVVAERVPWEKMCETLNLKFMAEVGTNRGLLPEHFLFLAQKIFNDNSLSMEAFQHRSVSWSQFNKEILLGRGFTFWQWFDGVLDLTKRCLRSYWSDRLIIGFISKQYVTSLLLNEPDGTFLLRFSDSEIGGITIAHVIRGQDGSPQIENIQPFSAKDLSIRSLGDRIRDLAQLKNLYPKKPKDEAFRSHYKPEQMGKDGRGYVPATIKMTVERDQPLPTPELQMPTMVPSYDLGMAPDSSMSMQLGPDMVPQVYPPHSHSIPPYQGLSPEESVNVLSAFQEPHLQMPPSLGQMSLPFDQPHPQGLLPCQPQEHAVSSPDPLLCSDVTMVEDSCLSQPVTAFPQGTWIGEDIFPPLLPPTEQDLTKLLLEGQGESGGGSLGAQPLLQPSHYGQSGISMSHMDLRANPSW
Procedure, shortened: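 HaCaT IL-13Ra2-promoter NanoLuc reporter; cpd 2 h 37 °C in DMEM/2% HI FBS; IL-13 0.12 nM final, 4 h; Nano-Glo luminescence.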

[1] = system: CCL17 secretion in peripheral human whole blood; test: Human Whole Blood (HWB) CCL17 TR-FRET Assay (IL-13 stimulated CCL17 secretion); format: cell-based
Procedure, shortened: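 IC50 values reflect inhibition of IL-13-driven CCL17 release in human whole blood. Blood was preincubated with compound 2 h, stimulated 48 h at 37 °C with IL-13 (10 ng/mL final), and serum CCL17 was measured by TR-FRET.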

[2] = IL-13 stimulated HaCaT STAT6 NanoLuc reporter cells
[3] = Homo sapiens, 48 h, human whole blood, IL-13 10 ng/mL
[4] = human whole blood, IL-13 stimulated, 48 hours
[5] = STAT6 NanoLuc luciferase reporter, IL-13 stimulated HaCaT keratinocyte cells
[6] = Homo sapiens, 48 h, inhibition of CCL17 secretion in human whole blood, 10 ng/mL IL13, 48 hours
[7] = Homo sapiens, 48 h, human whole blood, 10 ng/mL IL13, 48 hours
[8] = Homo sapiens, 48 h, human whole blood, IL-13 stimulated

CC(C)n1nc(C(=O)NCc2ccc(NC(=O)C3CCN(C)CC3)c(F)c2)c2c1[C@@H](C)CN(c1ccc(C(=O)N(C)C)cc1)C2 [Example 721, (S)-5-(4-(dimethylcarbamoyl)phenyl)-N-(3-fluoro-4-(1-methylpiperidine-4-carboxamido)benzyl)-1-isopropyl-7-methyl-4,5,6,7-tetrahydro-1H-pyrazolo[4,3-c]pyridine-3-carboxamide]
EC50 (STAT6; [2]): 12 nM | IC50 [1, 3]: 102 nM

CC(C)n1nc(C(=O)NCc2ccc(NC(=O)N(C)C)cc2)c2c1C(C(F)F)CN(c1ccc(C(=O)N(C)C)cn1)C2 (single isomer, unassigned) [Example 494, rel-(R or S)-7-(difluoromethyl)-5-(5-(dimethylcarbamoyl)pyridin-2-yl)-N-(4-(3,3-dimethylureido)benzyl)-1-isopropyl-4,5,6,7-tetrahydro-1H-pyrazolo[4,3-c]pyridine-3-carboxamide]
EC50 (STAT6; [2]): 0.5 nM | IC50 [1, 4]: 4 nM

CC(C)n1nc(C(=O)NCc2ccc(NC(=O)N(C)C)cc2)c2c1[C@@H](C)CN(c1ncc(C(=O)N(C)C)cn1)C2 [Example 127]
EC50 (STAT6; [5]): 1 nM | IC50 [1, 6]: 4 nM

CC(C)n1nc(C(=O)NCc2ccc(NC(=O)N(C)C)cc2)c2c1[C@H](C)CN(c1ccc(C(=O)N(C)C)cn1)C2 (single isomer, unassigned) [Example 112]
EC50 (STAT6; [5]): 15 nM | IC50 [1, 6]: 78 nM

CC(C)n1nc(C(=O)NCc2ccc(NC(=O)N3CCN4CCC[C@@H]4C3)cc2)c2c1[C@@H](C)CN(c1ccc(C(=O)N(C)C)cc1)C2 [Example 574, (S)-5-(4-(dimethylcarbamoyl)phenyl)-1-isopropyl-7-methyl-N-(4-((R)-octahydropyrrolo[1,2-a]pyrazine-2-carboxamido)benzyl)-4,5,6,7-tetrahydro-1H-pyrazolo[4,3-c]pyridine-3-carboxamide]
EC50 (STAT6; [2]): 0.5 nM | IC50 [1, 7]: 11 nM

COc1nc(-c2ccc(CNC(=O)c3nn(C(C)C)c4c3CN(c3ccc(C(=O)N(C)C)cc3)C[C@@H]4C)cc2)ncc1N [Example 731, (S)-N-(4-(5-amino-4-methoxypyrimidin-2-yl)benzyl)-5-(4-(dimethylcarbamoyl)phenyl)-1-isopropyl-7-methyl-4,5,6,7-tetrahydro-1H-pyrazolo[4,3-c]pyridine-3-carboxamide]
EC50 (STAT6; [2]): 82 nM | IC50 [1, 3]: 1250 nM

CC(C)n1nc(C(=O)NCc2ccc(NC(=O)N3CCN(C)CC3)cc2)c2c1[C@@H](C)CN(c1ccc(C(=O)N3Cc4cccnc4C3)cn1)C2 [Example 611, (S)-5-(5-(6,7-dihydro-5H-pyrrolo[3,4-b]pyridine-6-carbonyl)pyridin-2-yl)-1-isopropyl-7-methyl-N-(4-(4-methylpiperazine-1-carboxamido)benzyl)-4,5,6,7-tetrahydro-1H-pyrazolo[4,3-c]pyridine-3-carboxamide]
EC50 (STAT6; [2]): 0.2 nM | IC50 [1, 7]: 5 nM

CCC(C)n1nc(C(=O)NCc2ccc(NC(=O)N(C)C)cc2)c2c1[C@@H](C)CN(c1ccc(C(=O)N(C)C)cn1)C2 (single isomer, unassigned) [Example 318, (S)-1-((R*)-sec-butyl)-5-(5-(dimethylcarbamoyl)pyridin-2-yl)-N-(4-(3,3-dimethylureido)benzyl)-7-methyl-4,5,6,7-tetrahydro-1H-pyrazolo[4,3-c]pyridine-3-carboxamide]
EC50 (STAT6; [2]): 0.4 nM | IC50 [1, 4]: 4 nM

CC1CCN(c2ccc(N3CCc4c(c(C(=O)NCc5ccc(NC(=O)N(C)C)cc5)nn4C(C)C)C3)nc2)C1=O (centres unmarked) [Example 61, N-(4-(3,3-dimethylureido)benzyl)-1-isopropyl-5-(5-(3-methyl-2-oxopyrrolidin-1-yl)pyridin-2-yl)-4,5,6,7-tetrahydro-1H-pyrazolo[4,3-c]pyridine-3-carboxamide]
EC50 (STAT6; [5]): 75 nM | IC50 [1, 6]: 2590 nM

CCC1Cc2c(c(C(=O)NCc3ccc(NC(=O)N(C)C)cc3)nn2C(C)C)CN1c1ccc(C(=O)N(C)C)cn1 (racemic) [Example 249, rac-(R)-5-(5-(dimethylcarbamoyl)pyridin-2-yl)-N-(4-(3,3-dimethylureido)benzyl)-6-ethyl-1-isopropyl-4,5,6,7-tetrahydro-1H-pyrazolo[4,3-c]pyridine-3-carboxamide]
EC50 (STAT6; [2]): 6 nM | IC50 [1, 8]: 31 nM

CCC1CN(c2ccc(C(=O)N(C)C)cn2)Cc2c(C(=O)NCc3ccc(NC(=O)N(C)C)cc3)nn(CC)c21 (single isomer, unassigned) [Example 313, rel-(R or S)-5-(5-(dimethylcarbamoyl)pyridin-2-yl)-N-(4-(3,3-dimethylureido)benzyl)-1,7-diethyl-4,5,6,7-tetrahydro-1H-pyrazolo[4,3-c]pyridine-3-carboxamide]
EC50 (STAT6; [2]): 1 nM | IC50 [1, 4]: 15 nM

CC(n1nc(C(=O)NCc2ccc(NC(=O)N(C)C)cc2)c2c1CCN(c1ccc(C(=O)N(C)C)cn1)C2)C(F)(F)F (racemic) [Example 101, rac-(R)-5-(5-(dimethylcarbamoyl)pyridin-2-yl)-N-(4-(3,3-dimethylureido)benzyl)-1-(1,1,1-trifluoropropan-2-yl)-4,5,6,7-tetrahydro-1H-pyrazolo[4,3-c]pyridine-3-carboxamide]
EC50 (STAT6; [5]): 5 nM | IC50 [1, 6]: 53 nM

CN(C)C(=O)Nc1ccc(CNC(=O)c2nn(C)c3c2CN(c2ncc(C(=O)N(C)C)cn2)CC3C(F)(F)F)cc1 (single isomer, unassigned) [Example 392, rel-(R or S)-5-(5-(dimethylcarbamoyl)pyrimidin-2-yl)-N-(4-(3,3-dimethylureido)benzyl)-1-methyl-7-(trifluoromethyl)-4,5,6,7-tetrahydro-1H-pyrazolo[4,3-c]pyridine-3-carboxamide]
EC50 (STAT6; [2]): 568 nM | IC50 [1, 8]: 1080 nM

CC(C)n1nc(C(=O)NCc2ccc(NC(=O)N(C)C)cc2)c2c1CCN(c1ccc(N3CC4CC4C3=O)cn1)C2 (centres unmarked) [Example 91, N-(4-(3,3-dimethylureido)benzyl)-1-isopropyl-5-(5-(2-oxo-3-azabicyclo[3.1.0]hexan-3-yl)pyridin-2-yl)-4,5,6,7-tetrahydro-1H-pyrazolo[4,3-c]pyridine-3-carboxamide]
EC50 (STAT6; [5]): 14 nM | IC50 [1, 6]: 327 nM

CC(C)n1nc(C(=O)NCc2ccc(NC(=O)N(C)C)cc2)c2c1[C@@H](C)CN(c1ccc(C(=O)O)cn1)C2 [Example 504, (S)-6-(3-((4-(3,3-dimethylureido)benzyl)carbamoyl)-1-isopropyl-7-methyl-1,4,6,7-tetrahydro-5H-pyrazolo[4,3-c]pyridin-5-yl)nicotinic acid]
EC50 (STAT6; [2]): 874 nM | IC50 [1, 8]: > 21200 nM

CCn1nc(C(=O)NCc2ccc(C(=O)NC)cc2)c2c1[C@@H](C)CN(c1ncc(C(=O)N(C)C)cn1)C2 [Example 306, (S)-5-(5-(dimethylcarbamoyl)pyrimidin-2-yl)-1-ethyl-7-methyl-N-(4-(methylcarbamoyl)benzyl)-4,5,6,7-tetrahydro-1H-pyrazolo[4,3-c]pyridine-3-carboxamide]
EC50 (STAT6; [2]): 7 nM | IC50 [1, 8]: 33 nM

C[C@H]1CN(c2ccc(C(=O)N(C)C)cn2)Cc2c(C(=O)NCc3ccc(NC(=O)N(C)C)cc3)nn(C3CCOCC3)c21 (single isomer, unassigned) [Example 258]
EC50 (STAT6; [2]): 2 nM | IC50 [1, 8]: 8 nM

CC(C)n1nc(C(=O)NCc2ccc(NC(N)=O)cc2)c2c1[C@@H](C)CN(c1ccc(-c3nccn3C)cn1)C2 [Example 516, (S)-1-isopropyl-7-methyl-5-(5-(1-methyl-1H-imidazol-2-yl)pyridin-2-yl)-N-(4-ureidobenzyl)-4,5,6,7-tetrahydro-1H-pyrazolo[4,3-c]pyridine-3-carboxamide]
EC50 (STAT6; [2]): 1 nM | IC50 [1, 8]: 5 nM

CC(C)n1nc(C(=O)NCc2ccc(NC(=O)N(C)C)cc2)c2c1[C@@H](C)CN(c1ccc(C(=O)N(C)C)cn1)C2 (single isomer, unassigned) [Example 128]
EC50 (STAT6; [5]): 0.3 nM | IC50 [1, 6]: 3 nM
